Experimental data from ChEMBL document CHEMBL4177667, “Design, synthesis, and anticancer properties of isocorydine derivatives” (Bioorg Med Chem, 2017).
pIC50: −log10 of the molar value. Values after ≈ are worked out from the molar mass of the structure shown. Active and inactive are the calls of the source. The calls are words filed in the database; no cut-off is given here.

Key:
HepG2 [1] = assay: Upregulation of vimentin protein levels in human HepG2 cells at 5 to 20 ug/ml after 48 hrs by Western blot analysis; format: functional, cell-based
HeLa = assay: cells; conditions: Homo sapiens, 48 h
HepG2 [2] = assay: Antiproliferative activity against human HepG2 cells after 72 hrs by MTT assay; format: functional, cell-based; conditions: HepG2, 72 h
H22 [3] = assay: Synergistic antitumor activity against mouse H22 cells implanted in mouse assessed as tumor growth inhibition at 100 mg/kg, ip or ig qd administered for 10 consecutive days measured after 24 hrs post last dose in presence of sorafenib relative to control; format: functional; conditions: read-out: TGI
HepG2 [4] = assay: Downregulation of C-myc protein levels in human HepG2 cells after 48 hrs by Western blot analysis; format: functional, cell-based
HepG2 [5] = assay: Synergistic induction of apoptosis in human HepG2 cells assessed as viable cells at 10 ug/ml after 24 hrs in presence of sorafenib by Annexin V-FITC/propidium iodide staining-based flow cytometric analysis (reference value: 99.82%); format: functional; conditions: HepG2, 24 h, read-out: Activity
HepG2 [6] = assay: Cell cycle arrest in human HepG2 cells assessed as decrease in accumulation of cells at G0/G1 phase at 10 ug/ml after 48 hrs by propidium iodide staining-based flow cytometric analysis; format: functional
HepG2 [7] = assay: cells; conditions: Homo sapiens, HepG2, 48 h
H22 [8] = assay: Antitumor activity against mouse H22 cells implanted in mouse assessed as tumor growth inhibition at 50 mg/kg, ip qd administered for 10 consecutive days measured after 24 hrs post last dose relative to control; format: functional; conditions: read-out: TGI
HepG2 [9] = assay: Cell cycle arrest in human HepG2 cells assessed as increase in accumulation of cells at G2/M phase at 10 ug/ml after 48 hrs by propidium iodide staining-based flow cytometric analysis; format: functional
HepG2 [10] = assay: Synergistic growth inhibition against human HepG2 cells assessed as fold change in sorafenib IC50 at 10 ug/ml after 24 hrs by MTT assay; format: functional
HepG2 [11] = assay: Induction of apoptosis in human HepG2 cells assessed as early apoptotic cells at 5 ug/ml after 24 hrs by Annexin V-FITC/propidium iodide staining-based flow cytometric analysis (reference value: 0.18%); format: functional
H22 [12] = assay: Antitumor activity against mouse H22 cells implanted in mouse assessed as tumor growth inhibition at 150 mg/kg, ig qd administered for 10 consecutive days measured after 24 hrs post last dose relative to control; format: functional; conditions: H22, po, read-out: TGI
H22 [13] = assay: Antitumor activity against mouse H22 cells implanted in mouse assessed as tumor growth inhibition at 150 mg/kg, ip qd administered for 10 consecutive days measured after 24 hrs post last dose relative to control; format: functional; conditions: read-out: TGI
HepG2 [14] = assay: Synergistic downregulation of beta-catenin protein levels in human HepG2 cells at 10 ug/ml after 48 hrs in presence of sorafenib by Western blot analysis; format: functional, cell-based
HepG2 [15] = assay: Synergistic induction of apoptosis in human HepG2 cells assessed as late apoptotic cells at 10 ug/ml after 24 hrs in presence of sorafenib by Annexin V-FITC/propidium iodide staining-based flow cytometric analysis (reference value: 0%); format: functional
HepG2 [16] = assay: Induction of apoptosis in human HepG2 cells assessed as late apoptotic cells at 10 ug/ml after 24 hrs by Annexin V-FITC/propidium iodide staining-based flow cytometric analysis (reference value: 0%); format: functional
H22 [17] = assay: Antitumor activity against mouse H22 cells implanted in mouse assessed as tumor growth inhibition at 50 mg/kg, ig qd administered for 10 consecutive days measured after 24 hrs post last dose relative to control; format: functional; conditions: H22, po, read-out: TGI
HepG2 [18] = assay: Synergistic downregulation of cyclin D1 protein levels in human HepG2 cells at 10 ug/ml after 48 hrs in presence of sorafenib by Western blot analysis; format: functional, cell-based
HepG2 [19] = assay: Downregulation of Ki67 protein levels in human HepG2 cells after 48 hrs by Western blot analysis; format: functional, cell-based
HepG2 [20] = assay: Synergistic growth inhibition against human HepG2 cells assessed as fold change in sorafenib IC50 at 2.50 ug/ml after 24 hrs by MTT assay; format: functional
HepG2 [21] = assay: cells; conditions: Homo sapiens, HepG2, 24 h
Description: Antiproliferative activity against human HepG2 cells after 24 hrs by MTT assay

HepG2 [22] = assay: Synergistic growth inhibition against human HepG2 cells assessed as fold change in sorafenib IC50 at 5 ug/ml after 24 hrs by MTT assay; format: functional
U-251 = assay: Antiproliferative activity against human U251 cells after 48 hrs by MTT assay; format: functional, cell-based; conditions: U-251, 48 h
H22 [23] = assay: Synergistic antitumor activity against mouse H22 cells implanted in mouse assessed as tumor growth inhibition at 150 mg/kg, ip or ig qd administered for 10 consecutive days measured after 24 hrs post last dose in presence of sorafenib relative to control; format: functional; conditions: read-out: TGI
MDA-MB-231 = assay: Antiproliferative activity against human MDA-MB-231 cells after 48 hrs by MTT assay; format: functional, cell-based; conditions: MDA-MB-231, 48 h
H22 [24] = assay: Antitumor activity against mouse H22 cells implanted in mouse assessed as tumor growth inhibition at 100 mg/kg, ig qd administered for 10 consecutive days measured after 24 hrs post last dose relative to control; format: functional; conditions: H22, po, read-out: TGI
HepG2 [25] = assay: Synergistic induction of apoptosis in human HepG2 cells assessed as necrotic cells at 10 ug/ml after 24 hrs in presence of sorafenib by Annexin V-FITC/propidium iodide staining-based flow cytometric analysis (reference value: 0%); format: functional
HepG2 [26] = assay: Synergistic upregulation of vementin protein levels in human HepG2 cells at 10 ug/ml after 48 hrs in presence of sorafenib by Western blot analysis; format: functional, cell-based
MGC-803 = assay: Antiproliferative activity against human MGC803 cells after 48 hrs by MTT assay; format: functional, cell-based; conditions: MGC-803, 48 h
H22 [27] = assay: Synergistic antitumor activity against mouse H22 cells implanted in mouse assessed as tumor growth inhibition at 50 mg/kg, ip or ig qd administered for 10 consecutive days measured after 24 hrs post last dose in presence of sorafenib relative to control; format: functional; conditions: read-out: TGI
HepG2 [28] = assay: Induction of apoptosis in human HepG2 cells assessed as necrotic cells at 10 ug/ml after 24 hrs by Annexin V-FITC/propidium iodide staining-based flow cytometric analysis (reference value: 0%); format: functional
HepG2 [29] = assay: Synergistic downregulation of Ki67 protein levels in human HepG2 cells at 10 ug/ml after 48 hrs in presence of sorafenib by Western blot analysis; format: functional, cell-based
HepG2 [30] = assay: Induction of apoptosis in human HepG2 cells assessed as late apoptotic cells at 5 ug/ml after 24 hrs by Annexin V-FITC/propidium iodide staining-based flow cytometric analysis (reference value: 0%); format: functional
HepG2 [31] = assay: Induction of apoptosis in human HepG2 cells assessed as viable cells at 10 ug/ml after 24 hrs by Annexin V-FITC/propidium iodide staining-based flow cytometric analysis (reference value: 99.82%); format: functional; conditions: HepG2, 24 h, read-out: Activity
HepG2 [32] = assay: Downregulation of cyclin D1 protein levels in human HepG2 cells after 48 hrs by Western blot analysis; format: functional, cell-based
HepG2 [33] = assay: Synergistic cell cycle arrest in human HepG2 cells assessed as decrease in accumulation of cells at G0/G1 phase at 10 ug/ml after 48 hrs in presence of sorafenib by propidium iodide staining-based flow cytometric analysis; format: functional
HepG2 [34] = assay: Synergistic downregulation of C-myc protein levels in human HepG2 cells at 10 ug/ml after 48 hrs in presence of sorafenib by Western blot analysis; format: functional, cell-based
HepG2 [35] = assay: Synergistic induction of apoptosis in human HepG2 cells assessed as early apoptotic cells at 10 ug/ml after 24 hrs in presence of sorafenib by Annexin V-FITC/propidium iodide staining-based flow cytometric analysis (reference value: 0.18%); format: functional
H22 [36] = assay: Antitumor activity against mouse H22 cells implanted in mouse assessed as tumor growth inhibition at 100 mg/kg, ip qd administered for 10 consecutive days measured after 24 hrs post last dose relative to control; format: functional; conditions: read-out: TGI
HepG2 [37] = assay: Downregulation of beta-Catenin protein levels in human HepG2 cells after 48 hrs by Western blot analysis; format: functional, cell-based
HepG2 [38] = assay: Induction of apoptosis in human HepG2 cells assessed as viable cells at 5 ug/ml after 24 hrs by Annexin V-FITC/propidium iodide staining-based flow cytometric analysis (reference value: 99.82%); format: functional; conditions: HepG2, 24 h, read-out: Activity
SMMC-7721 = assay: Antiproliferative activity against human SMMC7721 cells after 48 hrs by MTT assay; format: functional, cell-based; conditions: SMMC-7721, 48 h
HepG2 [39] = assay: Induction of apoptosis in human HepG2 cells assessed as early apoptotic cells at 10 ug/ml after 24 hrs by Annexin V-FITC/propidium iodide staining-based flow cytometric analysis (reference value: 0.18%); format: functional
HepG2 [40] = assay: Induction of apoptosis in human HepG2 cells assessed as necrotic cells at 5 ug/ml after 24 hrs by Annexin V-FITC/propidium iodide staining-based flow cytometric analysis (reference value: 0%); format: functional

- pIC50 (HeLa): 4.58
- IC50 (HepG2 [2]): 6.7 mg/L (≈ 11.6 µM)
- pIC50 (HepG2 [7]): 4.77
- IC50 (HepG2 [21]): 16.8 mg/L (≈ 29.1 µM)
- IC50 (U-251): 10.1 mg/L (≈ 17.5 µM)
- IC50 (MDA-MB-231): 15.6 mg/L (≈ 27 µM)
- pIC50 (MGC-803): 4.78
- IC50 (SMMC-7721): 18.6 mg/L (≈ 32.2 µM)
Structure (SMILES): COc1cc(NC(=O)Nc2ccc(Cl)c(C(F)(F)F)c2)c2c(c1O)-c1c(OC)c(OC)cc3c1[C@H](C2)N(C)CC3
- Activity (HepG2 [1]): Active
- inhibition in vivo at 100 mg/kg (H22 [3]): 65.1%
- Activity (HepG2 [4]): Dose-dependent effect
- viability at 10 µg/mL (HepG2 [5]): 36.3%
- Activity (HepG2 [6]): Active
- inhibition in vivo at 50 mg/kg (H22 [8]): 40.3%
- Activity (HepG2 [9]): Active
- fold change (FC) (HepG2 [10]): 2.04
- Activity (HepG2 [11]): 6.8%
- inhibition in vivo at 150 mg/kg (H22 [12]): 53.4%
- inhibition in vivo at 150 mg/kg (H22 [13]): 50.8%
- Activity (HepG2 [14]): Active
- Activity (HepG2 [15]): 19.34%
- Activity (HepG2 [16]): 8.78%
- inhibition in vivo at 50 mg/kg (H22 [17]): 40.1%
- Activity (HepG2 [18]): Active
- Activity (HepG2 [19]): Dose-dependent effect
- fold change (FC) (HepG2 [20]): 0.91
- fold change (FC) (HepG2 [22]): 1.25
- inhibition in vivo at 150 mg/kg (H22 [23]): 70.6%
- inhibition in vivo at 100 mg/kg (H22 [24]): 48.2%
- Activity (HepG2 [25]): 0.06%
- Activity (HepG2 [26]): inactive
- inhibition in vivo at 50 mg/kg (H22 [27]): 63.1%
- Activity (HepG2 [28]): 0.04%
- Activity (HepG2 [29]): Active
- Activity (HepG2 [30]): 2.14%
- viability at 10 µg/mL (HepG2 [31]): 88.1%
- Activity (HepG2 [32]): Dose-dependent effect
- Activity (HepG2 [33]): Active
- Activity (HepG2 [34]): Active
- Activity (HepG2 [35]): 44.33%
- inhibition in vivo at 100 mg/kg (H22 [36]): 46.3%
- Activity (HepG2 [37]): Dose-dependent effect
- viability at 5 µg/mL (HepG2 [38]): 91%
- Activity (HepG2 [39]): 3.11%
- Activity (HepG2 [40]): 0.07%
